Results taken from ChEMBL document CHEMBL4813934, “Investigation of Selected Flavonoid Derivatives as Potent FLT3 Inhibitors for the Potential Treatment of Acute Myeloid Leukemia” (J Nat Prod, 2021).

Columns and labels:
[1] = molecular target: Receptor-type tyrosine-protein kinase FLT3 (Homo sapiens, UniProt P36888, D835Y); assay: Inhibition of recombinant His-tagged human FLT3 D835Y mutant (564 to 958 residues) expressed in baculovirus expression system using tyr 02 as substrate incubated for 1 hr by Z'-LYTE assay
[2] = molecular target: T1, Receptor-type tyrosine-protein kinase FLT3 (Homo sapiens, UniProt P36888); assay: Inhibition of recombinant His-tagged human FLT3 (564 to 958 residues) expressed in baculovirus expression system using tyr 02 as substrate incubated for 1 hr by Z'-LYTE assay
T1 sequence (P36888 whole entry): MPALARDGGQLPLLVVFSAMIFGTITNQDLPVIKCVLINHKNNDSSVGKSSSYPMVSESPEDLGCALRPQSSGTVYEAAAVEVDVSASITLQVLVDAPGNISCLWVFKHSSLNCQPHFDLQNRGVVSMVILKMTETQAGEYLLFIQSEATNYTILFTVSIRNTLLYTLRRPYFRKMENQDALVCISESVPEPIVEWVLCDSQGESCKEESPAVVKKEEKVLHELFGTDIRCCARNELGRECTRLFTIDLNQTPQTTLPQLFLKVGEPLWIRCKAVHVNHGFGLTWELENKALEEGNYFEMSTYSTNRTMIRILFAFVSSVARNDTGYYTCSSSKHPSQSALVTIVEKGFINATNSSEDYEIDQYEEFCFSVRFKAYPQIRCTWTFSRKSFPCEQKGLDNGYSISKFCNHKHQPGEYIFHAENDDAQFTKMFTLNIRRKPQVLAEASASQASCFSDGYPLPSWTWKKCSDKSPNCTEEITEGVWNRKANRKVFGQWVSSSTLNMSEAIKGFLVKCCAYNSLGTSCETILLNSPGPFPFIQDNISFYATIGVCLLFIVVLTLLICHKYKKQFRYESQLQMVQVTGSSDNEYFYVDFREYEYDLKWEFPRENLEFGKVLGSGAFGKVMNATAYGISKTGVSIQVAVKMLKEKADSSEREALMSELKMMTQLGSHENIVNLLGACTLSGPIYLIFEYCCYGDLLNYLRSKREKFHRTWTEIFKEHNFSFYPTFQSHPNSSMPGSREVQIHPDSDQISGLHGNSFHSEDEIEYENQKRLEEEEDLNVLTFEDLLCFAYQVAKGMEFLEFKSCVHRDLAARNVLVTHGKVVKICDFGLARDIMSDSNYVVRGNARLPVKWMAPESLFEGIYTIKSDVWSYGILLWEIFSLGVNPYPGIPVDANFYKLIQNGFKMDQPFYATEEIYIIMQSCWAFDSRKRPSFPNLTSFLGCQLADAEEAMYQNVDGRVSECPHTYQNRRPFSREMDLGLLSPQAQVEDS

[3] = system: MOLM-13; assay: Cytotoxicity against human MOLM-13 cells assessed as reduction in cell viability measured after 72 hrs by MTT assay; assay type: functional, cell-based; conditions: MOLM-13, 72 h
[4] = molecular target: Receptor-type tyrosine-protein kinase FLT3 (Homo sapiens, UniProt P36888, ITD); assay: Inhibition of recombinant N-terminal GST/His6-tagged human FLT3 ITD mutant (571 to 993 residues) expressed in Sf9 insect cells incubated for 1 hr by LanthaScreen assay
[5] = system: MV4-11; assay: Cytotoxicity against human MV4-11 cells assessed as reduction in cell viability measured after 72 hrs by MTT assay; assay type: functional, cell-based; conditions: MV4-11, 72 h
[6] = molecular target: Receptor-type tyrosine-protein kinase FLT3 (Homo sapiens) (UniProt P36888); assay: Inhibition of recombinant His-tagged human FLT3 (564 to 958 residues) expressed in baculovirus expression system at 10 uM using tyr 02 as substrate incubated for 1 hr by Z'-LYTE assay relative to control

Row | IC50 [2] | inhibition [6] | SMILES | IC50 [1] | IC50 [3] | IC50 [4] | IC50 [5]
1 | 1100 nM | > 80% | COc1ccc(-c2cc(=O)c3c(O)c(OC)c(OC)cc3o2)cc1O [EUPATORIN] |  |  |  | 
2 | 1700 nM | > 80% | COc1cc(O)c2c(=O)cc(-c3ccc(O)cc3)oc2c1 [GENKWANIN] |  |  |  | 

Row | SMILES | IC50 [2] | inhibition [6] | IC50 [1] | IC50 [3] | IC50 [4] | IC50 [5]
3 | COc1ccc(-c2cc(=O)c3c(O)cc(O)cc3o2)cc1 [ACACETIN] | 880 nM | > 80% | 1000 nM | 9100 nM | 210 nM | 6800 nM
